Where two headings read alike, the source gives them in different places. Where no end group is shown, it is not given here. FAM = Fluorescein Amidites label
Columns and labels:
whole blood [1] = test: Inflammatory cytokine panel (cytometric bead array) after co-delivery of SIINFEKL and CpG into whole blood; conditions: 24 hours after 60-minute treatment
Procedure: (§1) A multi-analyte inflammatory cytokine panel was used to understand the immune response when CpG was added to the complexes. GpC, a nonfunctional analogue of CpG, was included as a negative control to preclude the role of nonspecific TLR9 activation during incubation. At 24 hours, following the 60-minute treatment with the non-covalent polymer-[sequence]-CpG complexes, supernatants from whole blood were tested the inflammatory cytokines: IL-1β, IFN-α, IFN-γ, TNF-α, MCP-1, IL-6, IL-8, IL-10, IL-12p70, IL-17A, IL-18, IL-23, and IL-33.
(§2) Whole human blood was obtained from healthy volunteers under signed consent in Roche Vacutainers containing hirudin. In all cases, blood was used within 10 minutes of the tapping from the donor. The blood was distributed into Eppendorf tubes containing preassembled polymer preparations in RPMI 1640 with no supplements and incubated up to 1 hour at 37° C. on rotation (60 RPM). In general, 400 μL of blood was combined with 100 μL of polymer complex prepared in RPMI 1640 for a final volume of 500 μL.
(§3) After one hour of incubation with treatment as reported under cell preparation and culture, cells were pelleted at 400 g for 2 minutes and supernatant was removed. […] Cytokine production was detected using the human inflammation cytometric bead array Legendplex™ from BioLegend® (740118).

whole blood [2] = system: whole blood
Procedure: as §1, §2, §3

[3] = system: bone marrow derived dendritic cells; test: Delivery into bone marrow derived dendritic cells, flow cytometry; format: cell-based, mouse; conditions: 1 μM antigen, free or with PTDM at 1:10, 4 hours
Procedure: To test SIINFEKL delivery and presentation for T cell activation, bone marrow derived dendritic cells were differentiated from B56 mouse bone marrow for 6 days in the presence of 20 ng/mL mouse GM-CSF. After 6 days, cells were harvested and treated with 1 μM fluorescently labeled SIINFEKL or OVA both free and in complex with PTDM molar ratio of 1:10 for 4 hours.
Immature dendritic cells were differentiated from murine bone marrow according to established protocols. (Dewitte, et al. J. Control. Release 2014, 195, 138-146.) RBCs were lysed using BioLegend® lysis buffer and cells were plated at a density of 2×10^5 cells/mL in complete RPMI (listed under cell lines) with the addition of 20 ng/mL recombinant mouse GM-CSF. Cells were cultured for 6 days with the addition of 10 mL fresh media and cytokines on day 3. Non-adherent and loosely adherent cells were harvested on day 6 and cells were pelleted, counted, and plated at a density of 2×10^6 cells/mL.
THP-1 monocytes, immature dendritic cells, and bone marrow derived dendritic cells were analyzed using a BD LSR Fortessa 20X flow cytometer with five lasers and 18 channels. […] Only cells negative for 7-AAD were assessed for either uptake or presentation of markers. Multi-color flow cytometric analysis spectral overlap was corrected by appropriate compensation and analyzed using FlowJo 10.2 (v3.05470) by Tree Star, Ashland, OR, USA.

whole blood [4] = test: Delivery of FAM labeled SIINFEKL into whole blood (time and concentration survey), flow cytometry; format: cell-based, human; conditions: molar ratio 1:10; 15, 30, 45 or 60 minutes; free peptide 60 minutes
Procedure: The specificity of the polymer-antigen complex uptake by monocytes was tested in whole blood. FAM (Fluorescein Amidites) labeled SIIFNEKL was delivered into whole blood using Me-Ph10-b-dG5 at a molar ratio of 1:10, for 15, 30, 45, or 60 minutes to investigate the kinetics of uptake. MFI and uptake in monocytes were not statistically different regardless of the incubation time. Additionally, complex uptake was compared with free SIINFEKL-FAM allowed to incubate with whole blood for 60 minutes.
FAM labeled SIINFEKL was delivered into whole blood using Me-Ph10-b-dG5 at a molar ratio of 1:10 at increasing peptide concentrations (0.25, 0.5, 1, and 2 μM).
After incubation, cells were pelleted at 200 g for 5 minutes and the supernatant was removed. Red blood cells were lysed in using BD Pharm lysis buffer and subsequently washed with 1% FBS in PBS twice before staining with antibodies. Unspecific binding was blocked for 10 minutes using human or mouse IgG respectively. Antibody surface staining was performed using Human CD14-APC, CD4O-PE, CD80-AF488, CD86-BV711, CD209-APC, HLA-DR-APC-Cy7, or mouse CD11c-AF488, CD86-AF647, HLA-DR, H-2K^b-PE as indicated by manufacturer (BD® or BioLegend®). […]

CC[C@H](C)[C@H](NC(=O)[C@@H](NC(=O)[C@@H](N)CO)[C@@H](C)CC)C(=O)N[C@@H](CC(N)=O)C(=O)N[C@@H](Cc1ccccc1)C(=O)N[C@@H](CCC(=O)O)C(=O)N[C@@H](CCCCN)C(=O)N[C@@H](CC(C)C)C(=O)O [SIINFEKL]
inflammatory cytokine response, in words (whole blood [1]): no increase in inflammatory response

Me-Ph10-b-dG5 [PTDM]
inflammatory cytokine response, in words (whole blood [2]): did not induce the production of inflammatory cytokines

OVA: ovalbumin protein, fluorescently labeled, free antigen
uptake of fluorescently labeled SIINFEKL or OVA [3]: significantly less uptake

SIINFEKL-FAM: FAM (Fluorescein Amidites) labeled SIINFEKL, free peptide (SIINFEKL-{FAM})
uptake of FAM labeled SIINFEKL by leukocytes, time survey (whole blood [4]): not readily taken up
